In US8163758B2 (Parion Sciences, Inc., priority 2006, dated 2012):

Legend:
beta-adrenergic receptor = molecular target: T1, beta-adrenergic receptor (Canis lupus familiaris, UniProt P54833); test: Beta agonist activity, anion secretion short circuit current in airway epithelial monolayers in Ussing chambers; format: cell-based, canine
T1 construct: endogenous in cells; host or cells: primary canine bronchial epithelial cells cultured at air-liquid interface
Description: To assess beta agonist activity the compounds of the present invention involves the determination of lumenal drug addition to promote airway epithelial anion currents measured under short circuit current (ISC) using airway epithelial monolayers mounted in Ussing chambers. Cells obtained from freshly excised human, dog, or sheep airways are seeded onto porous 0.4 micron Transwell® Permeable Supports (Corning), cultured at air-liquid interface (ALI) conditions in hormonally defined media, and assayed for anion secretion (ISC) while bathed in Krebs Bicarbonate Ringer (KBR) in Ussing chambers. All test drug additions are to the lumenal bath with approximately half-log dose additions (from 8×10^−10 M to 6.5×10^−5 M), and the cumulative change in ISC (excitation) recorded. All drugs are prepared in dimethyl sulfoxide as stock solutions at a concentration from 1×10^−1 to 1×10^−2 M and stored at −20° C. […] Before the start of the concentration-effect relationship 552-02 a potent sodium channel blocker was applied to the apical surface (1 μM) to eliminate changes in Isc caused by sodium absorption. All data from the voltage clamps are collected via a computer interface and analyzed off-line.
Concentration-effect relationships for all compounds are considered and analyzed Using GraphPad Prism version 3.00 for Windows, GraphPad Software, San Diego Calif. USA.

[1] = molecular target: T2, epithelial sodium channel (ENaC) (Canis lupus familiaris, UniProt A0A8I3MKE6+A0A8I3Q679+Q95165); test: ENaC blocking activity, short circuit current in airway epithelial monolayers in Ussing chambers; format: cell-based; conditions: canine bronchial epithelia
T2 construct: endogenous in cells; host or cells: primary canine bronchial epithelial cells cultured at air-liquid interface
T2 sequence (A0A8I3Q679 1-649): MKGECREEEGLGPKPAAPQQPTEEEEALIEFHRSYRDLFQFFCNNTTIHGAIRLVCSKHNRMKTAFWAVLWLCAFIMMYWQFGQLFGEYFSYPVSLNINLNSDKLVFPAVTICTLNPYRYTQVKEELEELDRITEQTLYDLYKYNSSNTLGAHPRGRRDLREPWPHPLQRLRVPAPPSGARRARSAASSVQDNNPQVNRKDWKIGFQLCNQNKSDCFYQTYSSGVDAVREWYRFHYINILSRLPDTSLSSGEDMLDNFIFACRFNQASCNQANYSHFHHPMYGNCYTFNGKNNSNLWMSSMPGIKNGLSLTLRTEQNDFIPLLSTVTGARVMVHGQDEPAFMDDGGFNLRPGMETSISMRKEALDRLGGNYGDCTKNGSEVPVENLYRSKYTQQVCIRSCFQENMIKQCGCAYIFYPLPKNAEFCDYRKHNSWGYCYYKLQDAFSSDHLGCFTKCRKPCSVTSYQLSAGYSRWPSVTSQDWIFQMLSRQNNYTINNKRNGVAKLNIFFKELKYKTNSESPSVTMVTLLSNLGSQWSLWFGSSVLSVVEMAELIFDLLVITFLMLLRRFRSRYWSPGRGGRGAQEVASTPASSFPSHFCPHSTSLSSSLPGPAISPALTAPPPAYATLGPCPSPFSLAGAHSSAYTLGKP
T2 sequence (Q95165 1-641): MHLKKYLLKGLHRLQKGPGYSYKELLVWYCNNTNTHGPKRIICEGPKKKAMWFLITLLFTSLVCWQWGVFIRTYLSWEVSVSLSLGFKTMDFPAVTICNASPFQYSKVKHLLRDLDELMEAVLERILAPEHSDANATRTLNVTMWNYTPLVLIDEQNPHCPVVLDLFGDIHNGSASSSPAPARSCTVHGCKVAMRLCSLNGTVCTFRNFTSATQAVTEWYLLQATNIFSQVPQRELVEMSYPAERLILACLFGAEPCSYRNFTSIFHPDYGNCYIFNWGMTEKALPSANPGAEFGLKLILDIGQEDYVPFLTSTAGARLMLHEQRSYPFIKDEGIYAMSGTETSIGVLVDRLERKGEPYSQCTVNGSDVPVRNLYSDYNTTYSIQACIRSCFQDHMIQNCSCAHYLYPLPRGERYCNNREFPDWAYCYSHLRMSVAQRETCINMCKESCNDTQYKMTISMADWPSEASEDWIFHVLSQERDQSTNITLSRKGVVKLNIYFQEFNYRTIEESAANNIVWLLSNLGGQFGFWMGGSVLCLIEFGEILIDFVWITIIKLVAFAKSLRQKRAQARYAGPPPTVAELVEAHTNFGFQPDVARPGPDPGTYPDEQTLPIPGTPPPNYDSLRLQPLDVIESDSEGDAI
T2 sequence (A0A8I3MKE6 1-646): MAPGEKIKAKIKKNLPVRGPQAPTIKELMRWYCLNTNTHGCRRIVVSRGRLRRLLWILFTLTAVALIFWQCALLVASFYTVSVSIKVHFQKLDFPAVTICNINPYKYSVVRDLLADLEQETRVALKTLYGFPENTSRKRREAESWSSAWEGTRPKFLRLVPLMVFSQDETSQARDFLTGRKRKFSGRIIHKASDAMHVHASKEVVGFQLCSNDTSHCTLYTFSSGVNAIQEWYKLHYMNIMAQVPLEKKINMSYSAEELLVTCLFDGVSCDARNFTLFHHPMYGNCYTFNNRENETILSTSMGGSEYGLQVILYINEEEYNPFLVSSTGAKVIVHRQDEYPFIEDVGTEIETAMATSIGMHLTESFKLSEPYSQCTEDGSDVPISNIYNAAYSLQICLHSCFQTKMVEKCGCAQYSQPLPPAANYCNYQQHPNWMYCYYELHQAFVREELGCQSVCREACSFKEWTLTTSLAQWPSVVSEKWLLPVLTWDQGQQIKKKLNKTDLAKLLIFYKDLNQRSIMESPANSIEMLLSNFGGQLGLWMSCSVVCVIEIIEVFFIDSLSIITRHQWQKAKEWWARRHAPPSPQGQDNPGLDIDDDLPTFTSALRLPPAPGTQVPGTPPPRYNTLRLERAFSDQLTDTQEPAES
Description: To assess epithelial sodium channel blocker potency the compounds of the present invention involves the determination of lumenal drug inhibition of airway epithelial sodium currents measured under short circuit current (ISC) using airway epithelial monolayers mounted in Ussing chambers. Cells obtained from freshly excised human, or dog airways are seeded onto porous 0.4 micrometer Transwell® Permeable Supports (Corning Inc. Acton, Mass.), cultured at air-liquid interface (ALI) conditions in hormonally defined media, and assayed for sodium transport activity (ISC) while bathed in Krebs Bicarbonate Ringer (KBR) in Ussing chambers. All test drug additions are to the lumenal bath with approximately half-log dose additions (from 1×10^−11 M to 6×10^−5 M), and the cumulative change in ISC (decreases) recorded. All drugs are prepared in dimethyl sulfoxide as stock solutions at a concentration of approximately 1×10^−2 and stored at −20° C. Six preparations are typically run in parallel; one preparation per run incorporates 552-02 as a positive control. Before the start of the concentration-effect relationship propranolol, a non-selective […], was applied to the lumenal bath (10 μM) to inhibit the beta agonist component of the designer multiple ligand (DML). All data from the voltage clamps are collected via a computer face and analyzed off-line.
Concentration-effect relationships for all compounds are considered and analyzed Using GraphPad Prism version 3.00 for Windows, GraphPad Software, San Diego Calif. USA. IC50 values, […], are calculated and compared to the 552-02 potency as a positive control.

T1 sequence (P54833 whole entry): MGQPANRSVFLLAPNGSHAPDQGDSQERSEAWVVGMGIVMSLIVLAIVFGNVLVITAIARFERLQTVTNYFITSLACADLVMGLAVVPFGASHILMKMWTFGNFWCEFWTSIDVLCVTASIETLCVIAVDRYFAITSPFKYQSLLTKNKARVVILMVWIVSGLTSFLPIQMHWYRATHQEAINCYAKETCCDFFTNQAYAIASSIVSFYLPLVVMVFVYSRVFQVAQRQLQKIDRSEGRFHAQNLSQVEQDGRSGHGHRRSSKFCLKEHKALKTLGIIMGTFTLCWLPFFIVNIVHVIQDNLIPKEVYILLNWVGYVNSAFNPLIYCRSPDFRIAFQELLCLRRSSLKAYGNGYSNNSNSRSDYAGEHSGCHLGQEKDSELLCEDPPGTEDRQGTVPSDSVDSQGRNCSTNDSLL

In the case of `N=C(NCCCCc1ccc(CCCCNC[C@H](O)c2ccc(O)c(NC=O)c2)cc1)NC(=O)c1nc(Cl)c(N)nc1N` [Compound 12, N-(5-{2-[4-(4-{4-[N′-(3,5-diamino-6-chloropyrazine-2-carbonyl)guanidino]butyl}phenyl)butylamino]-1-(R)-hydroxyethyl}-2-hydroxyphenyl)formamide], the EC50 (beta-adrenergic receptor) is reported as 151 nM, the melting point is reported as 138 to 140 °C and the “ENaC blocking potency relative to Amiloride” value ([1]; fold potency versus amiloride) is reported as 132 × Amiloride. The IC50 ([1]; lumenal addition, propranolol 10 μM applied first) was 5.7 nM.
